Values of other authors in patent publication US10597315B2, “Method of disinfection of drinking water using ozone and silver cations” (KAUNO TECHNOLOGIJOS UNIVERSITETAS, priority 2015, dated 2020).

Tests used:
[1] = World Health Organization

For `[Ag+]` [silver], the “Silver in drinking water tolerable without any risk to health” value [1] is listed as “up to 0.1 mg/kg”, the “Ingested silver absorbed in the intestine” value is listed as 10% and the “Ingested silver excreted from the body via the faeces” value is listed as 90%.
